Consider 26 compounds from article PMC8565515, “Dasabuvir Inhibits Human Norovirus Infection in Human Intestinal Enteroids” (mSphere, 2021).

Counter-ions that a name gives are not always drawn.

One series deals with J2 HIE monolayers. The note with it: human, 24 h, 10 μM.
Another series deals with GII.4 HuNoV. The experiment in a line: GII.4 HuNoV infection of HIE monolayers, viral genome equivalents by RT-qPCR. Format: cell-based, human norovirus. The note with it: Norovirus, 24 h; compound 10 μM, n = 1, J2 HIE monolayers, GII.4 HuNoV, 24 hpi, normalized to DMSO control; read-out: (%) HuNoV GEs.

For the compound `Clc1ccc(COC(Cn2ccnc2)c2ccc(Cl)cc2Cl)c(Cl)c1` (stereo not shown) [Miconazole], in the series on J2 HIE monolayers, the “(%) Cytotoxicity” value was determined as 25.21%. In addition, the activity at 10 µM in the series on GII.4 HuNoV stood at 76.8%.

In the case of `Cc1c(O)cccc1C(=O)N[C@@H](CSc1ccccc1)[C@H](O)CN1C[C@H]2CCCC[C@H]2C[C@H]1C(=O)NC(C)(C)C` [Nelfinavir Mesylate], the “(%) Cytotoxicity” value with J2 HIE monolayers is recorded as 4.06%. Besides, in the series with GII.4 HuNoV, the activity at 10 µM was found to be 39.7%.

With `CC(=O)Oc1ccccc1C(=O)Nc1ncc([N+](=O)[O-])s1` [Nitazoxanide], the “(%) Cytotoxicity” value in the series with J2 HIE monolayers is listed as 4.63%. For the same compound, the activity at 10 µM in the series with GII.4 HuNoV is 44.5%.

As to `O=C(O)c1cc(=O)[nH]c(=O)[nH]1` [Orotic acid], the “(%) Cytotoxicity” value in the series with J2 HIE monolayers amounted to 0.45%. In the series with GII.4 HuNoV, the activity at 10 µM is 52.6%.

`CN(C(=O)CN(CCO)CC(=O)N(C)C(C)(C)Cc1ccccc1)C(C)(C)Cc1ccccc1` [Oxethazaine]: the “(%) Cytotoxicity” value with J2 HIE monolayers came out at 1.91%. In addition, the activity at 10 µM in the series on GII.4 HuNoV amounted to 29.4%.

For the compound `CN(C)[C@@H]1C(O)=C(C(N)=O)C(=O)[C@@]2(O)C(O)=C3C(=O)c4c(O)cccc4[C@@](C)(O)[C@H]3[C@H](O)[C@@H]12` [Oxytetracycline], the “(%) Cytotoxicity” value in the series on J2 HIE monolayers came out at 3.05%. Further, in the series on GII.4 HuNoV, the activity at 10 µM came out at 46.2%.

On to `Nc1nc2c(ncn2CCC(CO)CO)c(=O)[nH]1` [Penciclovir], for which, in the series with J2 HIE monolayers, the “(%) Cytotoxicity” value was 2.02%. The activity at 10 µM in the series on GII.4 HuNoV was 22.1%.

Regarding `O=C(O)c1ccccc1C(=O)Nc1ccc(S(=O)(=O)Nc2nccs2)cc1` [Phthalylsulfathiazole], the “(%) Cytotoxicity” value in the series on J2 HIE monolayers turned out to be 2.05%. In addition, the activity at 10 µM in the series on GII.4 HuNoV was found to be 44%.

Turning to `CCOC(=O)c1ccc(OCCC2CCN(c3ccc(C)nn3)CC2)cc1` [Pirodavir], the “(%) Cytotoxicity” value in the series with J2 HIE monolayers is given as -3.64%. The activity at 10 µM in the series with GII.4 HuNoV was determined as 50.5%.

For `CCOCc1nc2c(N)nc3ccccc3c2n1CC(C)(C)O` [Resiquimod], the “(%) Cytotoxicity” value with J2 HIE monolayers turned out to be 2.61%. The activity at 10 µM in the series with GII.4 HuNoV was 76.7%.

On to `Cc1nc(Nc2ccc(F)cc2)nc(N2CCc3ccccc3C2C)c1C` (stereo not shown) [Revaprazan hydrochloride], for which, in the series with J2 HIE monolayers, the “(%) Cytotoxicity” value amounted to 0.20%. Also, in the series with GII.4 HuNoV, the activity at 10 µM is 214%.

Take `CO[C@H]1/C=C/O[C@@]2(C)Oc3c(C)c(O)c4c(O)c(c(/C=N/N5CCN(C)CC5)c(O)c4c3C2=O)NC(=O)/C(C)=C\C=C\[C@H](C)[C@H](O)[C@@H](C)[C@@H](O)[C@@H](C)[C@H](OC(C)=O)[C@@H]1C` [Rifampicin]: the “(%) Cytotoxicity” value in the series on J2 HIE monolayers is listed as 2.64%. For the same compound, in the series with GII.4 HuNoV, the activity at 10 µM worked out at 60.2%.

Turning to `CC(C)c1nc(CN(C)C(=O)N[C@H](C(=O)N[C@@H](Cc2ccccc2)C[C@H](O)[C@H](Cc2ccccc2)NC(=O)OCc2cncs2)C(C)C)cs1` [Ritonavir], the “(%) Cytotoxicity” value in the series on J2 HIE monolayers came out at 1.11%. Also, the activity at 10 µM with GII.4 HuNoV came out at 52.7%.

As to `Cc1cc(F)c(C(=O)Nc2cccc(-c3nncn3C(C)C)n2)cc1-n1cnc(C2CC2)c1` [Selonsertib], in the series on J2 HIE monolayers, the “(%) Cytotoxicity” value was -2.58%. Also, in the series with GII.4 HuNoV, the activity at 10 µM is 48.5%.

Consider `NCCCNCCCCNCCCN` [Spermine], for which, in the series with J2 HIE monolayers, the “(%) Cytotoxicity” value was 2.77%. Moreover, the activity at 10 µM with GII.4 HuNoV was 116%.

With `Cc1cn([C@H]2C=C[C@@H](CO)O2)c(=O)[nH]c1=O` [Stavudine], the “(%) Cytotoxicity” value with J2 HIE monolayers was 2.15%. Also, the activity at 10 µM in the series on GII.4 HuNoV was found to be 124%.

On to `COc1ncnc(NS(=O)(=O)c2ccc(N)cc2)c1OC` [Sulfadoxine], for which the “(%) Cytotoxicity” value with J2 HIE monolayers came out at 2.36%. The activity at 10 µM in the series with GII.4 HuNoV is 50%.

Consider `CCC[C@H](NC(=O)[C@@H]1[C@H]2CCC[C@H]2CN1C(=O)[C@@H](NC(=O)[C@@H](NC(=O)c1cnccn1)C1CCCCC1)C(C)(C)C)C(=O)C(=O)NC1CC1` [Telaprevir], for which the “(%) Cytotoxicity” value in the series with J2 HIE monolayers is reported as 0.86%. Also, the activity at 10 µM in the series with GII.4 HuNoV turned out to be 53.2%.

On to `Cc1cn([C@@H]2C[C@@H](O)[C@H](CO)O2)c(=O)[nH]c1=O` [Telbivudine], for which, in the series on J2 HIE monolayers, the “(%) Cytotoxicity” value was -0.33%. Moreover, the activity at 10 µM with GII.4 HuNoV is 70.2%.

In the case of `C[C@H](Cn1cnc2c(N)ncnc21)OCP(=O)(O)O` [Tenofovir], the “(%) Cytotoxicity” value with J2 HIE monolayers was 0.98%. The activity at 10 µM with GII.4 HuNoV came out at 56.5%.

For the compound `CCS(=O)(=O)CCn1c([N+](=O)[O-])cnc1C` [Tinidazole], the “(%) Cytotoxicity” value in the series on J2 HIE monolayers is reported as -0.09%. In the series with GII.4 HuNoV, the activity at 10 µM was 41%.

Regarding `O=c1[nH]c(=O)n([C@H]2C[C@H](O)[C@@H](CO)O2)cc1C(F)(F)F` [Trifluridine], the “(%) Cytotoxicity” value in the series on J2 HIE monolayers is recorded as 0.46%. Besides, the activity at 10 µM with GII.4 HuNoV was 77.1%.

For `Clc1ccc(C(Cn2ccnc2)OCc2ccsc2Cl)c(Cl)c1` (stereo not shown) [Vagistat], the “(%) Cytotoxicity” value in the series on J2 HIE monolayers is listed as 3.16%. For the same compound, the activity at 10 µM in the series on GII.4 HuNoV amounted to 28.3%.

With `CC(C)[C@H](N)C(=O)OCCOCn1cnc2c(=O)[nH]c(N)nc21` [Valacyclovir hydrochloride], the “(%) Cytotoxicity” value in the series on J2 HIE monolayers was determined as 0.09%. Further, the activity at 10 µM in the series on GII.4 HuNoV was determined as 22.4%.

`CC(C)[C@H](N)C(=O)OCC(CO)OCn1cnc2c(=O)nc(N)[nH]c21` (stereo partly shown) [Valganciclovir hydrochloride]: the “(%) Cytotoxicity” value with J2 HIE monolayers turned out to be 0.33%. Moreover, in the series on GII.4 HuNoV, the activity at 10 µM was 189%.

`Nc1ncnc2c1ncn2[C@@H]1O[C@H](CO)[C@@H](O)[C@@H]1O` [Vidarabine]: the “(%) Cytotoxicity” value with J2 HIE monolayers is recorded as -2.58%. Besides, the activity at 10 µM in the series with GII.4 HuNoV was found to be 51.4%.
